Laboratory results reported in patent US11564911B2, “Small molecule dual-inhibitors of TRPV4 and TRPA1 for sanitizing and anesthetizing” (Duke University, priority 2016, dated 2023).

Legend:
[1] = tested on: primary mouse keratinocytes (1° MK); experiment: UVB-evoked Ca++ signaling in primary mouse keratinocytes (fluo-4); assay type: cell-based
Experimental: Ca++ imaging of 1° MK was conducted following routine procedures. For UVB stimulation, a customized device was built. The system comprised a printed circuit board for electrical interconnects and mechanical support and an ultraviolet light-emitting diode (UV LED).
The operating wavelength was 295 nm (FIG. 2A), with a full-width half-max of 12 nm. The optical power was 500 mW. The focal point was aimed at the plane of the upper surface of the quartz coverslip, which was used to minimize UV absorption along the optical path towards the cells (FIG. 2A-C). The optical intensity at the focal point was estimated to be 150 mW/mm^2.
(§1) Ca++ imaging of mouse 1° MK in response to chemical activation of TRPV4 was conducted after loading with 2 μM fura2-AM, following a ratiometric Ca2+ imaging protocol with 340/380 nm […] for dual excitation. Ratios of emissions were acquired at 0.5 Hz. ΔR/R0 was determined as the fraction of the increase of a given ratio over baseline ratio, divided by baseline ratio. For stimulation of cells with UVB, where fura-2 was not suitable because of the proximity of stimulation with 340/380 nm and 295 nm, 2 μM fluo4-AM was used instead. Ca++ imaging was carried out at 488 nm excitation, acquisition of emissions at 0.5 Hz, expressed as ΔF/F0. In the custom-built UV optical system, UV LEDs were capped with a ball lens, a transparent optical window in the shape of a hemispherical lens (FIG. 2B). The LED output optical beam focused at 15-20 mm from the lens, with a spot diameter of approximately 1.5-2.0 mm (FIG. 2C). […] The thermal equilibration stage was set for physiological temperature.

[2] = target: T1, TRPV4 (Mus musculus, UniProt Q9EPK8); experiment: Ca++ transients in primary mouse keratinocytes on chemical activation of TRPV4 (GSK101, 4α-PDD); assay type: cell-based; conditions: 1° MK, 5 nM GSK101; GSK205 20 μM
T1 construct: endogenous in cells; host or cells: primary mouse epidermal keratinocytes (1° MK)
T1 sequence (Q9EPK8 whole entry): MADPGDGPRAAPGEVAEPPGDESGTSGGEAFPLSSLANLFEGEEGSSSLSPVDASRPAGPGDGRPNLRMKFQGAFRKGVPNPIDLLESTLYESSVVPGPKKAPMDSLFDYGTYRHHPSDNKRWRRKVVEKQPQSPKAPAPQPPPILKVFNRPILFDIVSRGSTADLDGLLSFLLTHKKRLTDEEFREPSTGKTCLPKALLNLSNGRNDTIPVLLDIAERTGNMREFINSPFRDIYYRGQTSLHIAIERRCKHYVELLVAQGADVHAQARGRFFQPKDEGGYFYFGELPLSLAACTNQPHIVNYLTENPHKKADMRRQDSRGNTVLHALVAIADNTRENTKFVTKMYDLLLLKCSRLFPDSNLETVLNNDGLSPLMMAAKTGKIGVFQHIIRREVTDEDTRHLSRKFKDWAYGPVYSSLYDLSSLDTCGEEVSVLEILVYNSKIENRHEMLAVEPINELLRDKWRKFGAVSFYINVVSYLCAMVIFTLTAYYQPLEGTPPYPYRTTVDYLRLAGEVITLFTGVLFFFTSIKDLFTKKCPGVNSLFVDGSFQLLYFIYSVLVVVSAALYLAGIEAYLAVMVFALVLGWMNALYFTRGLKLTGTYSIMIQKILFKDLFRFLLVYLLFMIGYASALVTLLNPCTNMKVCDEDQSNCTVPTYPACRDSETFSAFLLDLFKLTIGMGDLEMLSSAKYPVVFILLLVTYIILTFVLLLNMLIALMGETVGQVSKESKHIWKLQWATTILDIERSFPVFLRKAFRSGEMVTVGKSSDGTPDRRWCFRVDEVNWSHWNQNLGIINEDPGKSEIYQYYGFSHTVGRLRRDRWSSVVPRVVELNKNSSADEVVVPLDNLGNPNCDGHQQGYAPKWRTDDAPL
Experimental: as §1, with “temperature. We confirmed the non-thermal nature of UVB stimulation using the customized 295 nm LED device in a dedicated experiment (FIG. 2D), thus confirming the specific modality of stimulation as UVB.” for “temperature.”

[3] = tested on: mouse paw-pad skin, UVB-photodermatitis; experiment: UVB-exposed paw-pad skin after topical GSK205: histopathology and mediators; assay type: in vivo
Experimental: GSK205 topical treatment: A viscous solution of 68% EtOH/5% glycerol plus 1 mM or 5 mM GSK205 (none for control) was applied to hindpaws by rubbing in 20 μL, applied at time-points 1 hour and again 10 min before UV exposure.
Routine procedures were followed as described previously (Chen et al., 2009). Mice were perfused transcardially with 30 mL PBS, followed by 30 mL 4% paraformaldehyde. Tissues, including the L5 DRGs (bilateral), and footpad preparations, were dissected and post-fixed in 4% paraformaldehyde. Tissue blocks were further cryoprotected in 30% sucrose in PBS for 24-48 hours. For mouse TRPV4, keratin-specific antibodies, phospho-ERK, IL-6, IL-1β, CXCL5 and caspase-1, tissue was prepared as frozen blocks and subsequently sectioned on a cryostat. For CD68, CD15 (neutrophil elastase) and CD3, mouse skin was prepared by 2% PFA perfusion. Footpad and DRG sections (both at 6-10 μm) were thaw-mounted, blocked with 5% normal goat serum (NGS; Jackson), then incubated overnight at 4° C. with the following primary antibodies: rabbit anti-TRPV4 (1:300; Abcam), mouse anti-keratin 14 (1:300; Abcam against C-terminal peptide beyond residue 850); rabbit anti-keratin 14 (1:1000; Fuchs-Lab), rabbit anti-phosph-ERK1/2 (1:500; Cell signaling technologies), goat anti-IL-1β (1:800; Abcam), goat anti-IL-6 (1:200; Santa Cruz Biotechnology Inc); rabbit anti-caspase-1 (1:200; Biovision Research Products, CA); goat anti-mouse LIX/CXCL5 (1:200; R&D Systems Inc), anti-CD68, anti-[…], and anti-CD3 (AbDSerotec). Immunodetection was accomplished with appropriate fluorescently-labeled secondary antibodies (AlexaFluor595, AlexaFluor488-conjugated antibodies at 1:600; Invitrogen; for CD15 biotinylated secondary antibody from donkey, 1:400 followed by rhodamine-streptavidine 1:250), or with peroxidase-linked detection reagents (for CD68) for 2 hours at room-temperature. Sections were rinsed, mounted, and cover-slipped with fluoromount (Sigma). Digital micrographs were obtained using a BX61 Olympus upright microscope, also with a Zeiss LSM510 confocal, both equipped with high-res CCD camera, and acquired with constant exposure settings, using ISEE or Zeiss Zen software. Morphometric analysis was conducted using ImageJ freeware (v1.45) with tailored regions-of-interest that spared the nuclear compartment. ImageJ was also used for determination of DRG surface area.

SMILES: CN(CCc1ccc(Nc2nc(-c3cccnc3)cs2)cc1)Cc1ccccc1 [GSK205]
- UVB-evoked Ca++ signal ([1]; GSK205 20 μM): strongly down-regulated
- ET1-augmented UVB-induced Ca++ transients ([1]; co-exposure to ET1): greatly diminished
- GSK101-evoked Ca++ transient [2]: completely blocked
- CXCL5 upregulation in UVB-exposed footpad ([3]; topical 5 mM GSK205): significant blocks
- IL-1β upregulation in UVB-exposed mouse skin ([3]; topical 5 mM GSK205): failed to upregulate
- IL-6 upregulation in UVB-exposed footpad ([3]; topical 5 mM GSK205): significant blocks
- histopathology of UVB-exposed paw skin ([3]; topical 5 mM GSK205): virtual elimination of inflammation
- Edn1 mRNA-expression in UVB-exposed paw-pad skin ([3]; topical 5 mM GSK205, 2 h and 24 h): unchanged
